According to the NIST ThermoML archive (doi:10.1021/acs.jced.6b00686):
Numbers after ± are expanded uncertainties.

Assay: refractive index (Na D-line) (dimensionless)
Details: 293.15 K; 101.3 kPa; Liquid; Standard Abbe refractometry

refractive index | Compound
1.5027 ± 0.0005 | O=C(O)CS [2-mercaptoacetic acid]
1.3905 ± 0.0005 | CC(=O)OCC(C)C [2-methylpropyl ethanoate]
1.3887 ± 0.0005 | CCCCOC=O [butyl methanoate]
1.3327 ± 0.0005 | O [water]

Compound | refractive index
CCCCOC(C)=O [butyl ethanoate] | 1.394 ± 0.0005
